Test results reported in patent publication US9149038B2, “4-amino-6-(heterocyclic)picolinates and 6-amino-2-(heterocyclic)pyrimidine-4-carboxylates and their use as herbicides” (Dow AgroSciences LLC, priority 2013, dated 2015).
Read-outs that look alike come from different tables or passages of the source.

Test system: Wheat and Barley and weed species
Assay: Post-Emergent Test III: postemergent herbicidal activity in wheat and barley, visual rating after 21 d and probit GR20/GR50/GR80/GR90 (Tables 9-13)
Format: in vivo
Details: for pest or weed control at 17.5 g/ha / pest or weed control at 35 g/ha / pest or weed control at 70 g/ha: post-emergence, 504 h
In short: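 Greenhouse plants (~18/17 °C, 14 h photoperiod) at second–third true leaf stage sprayed at 187 L/ha with a high rate and ½× to 1/16× serial dilutions. Visual injury 0–100% versus solvent-blank controls scored at 21 d; GR20, GR50, GR80 and GR90 derived by probit analysis across rates.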

COC(=O)c1nc(-c2cc3c(cc2F)OC(F)(F)O3)cc(N)c1Cl [Compound 32]
GR50 ALOMY (ALOMY black-grass (Alopecurus myosuroides), growth reduction of 50%, probit analysis): 5 g ai/ha
GR80 ALOMY (ALOMY black-grass (Alopecurus myosuroides), growth reduction of 80%, probit analysis): 12 g ai/ha
GR90 ALOMY (ALOMY black-grass (Alopecurus myosuroides), growth reduction of 90%, probit analysis): 18 g ai/ha
Visual Growth Reduction (%) 21 Days After Application AVEFA (AVEFA wild oat (Avena fatua), 17.5 g ai/ha): E (45-59)
Visual Growth Reduction (%) 21 Days After Application AVEFA (AVEFA wild oat (Avena fatua), 35 g ai/ha): D (60-74)
Visual Growth Reduction (%) 21 Days After Application AVEFA (AVEFA wild oat (Avena fatua), 70 g ai/ha): D (60-74)
GR50 AVEFA (AVEFA wild oat (Avena fatua), growth reduction of 50%, probit analysis): 31 g ai/ha
GR80 AVEFA (AVEFA wild oat (Avena fatua), growth reduction of 80%, probit analysis): >70 g ai/ha
GR90 AVEFA (AVEFA wild oat (Avena fatua), growth reduction of 90%, probit analysis): >70 g ai/ha
GR20 HORVS (HORVS barley, spring (crop), growth reduction of 20%, probit analysis): 3 g ai/ha
pest or weed control at 17.5 g/ha (Hordeum vulgare, HORVS barley, spring (crop), 17.5 g ai/ha, read-out: Visual Growth Reduction (%) 21 Days After Application HORVS): 45 to 59%
pest or weed control at 35 g/ha (Hordeum vulgare, HORVS barley, spring (crop), 35 g ai/ha, read-out: Visual Growth Reduction (%) 21 Days After Application HORVS): 60 to 74%
pest or weed control at 70 g/ha (Hordeum vulgare, HORVS barley, spring (crop), 70 g ai/ha, read-out: Visual Growth Reduction (%) 21 Days After Application HORVS): 60 to 74%
GR50 LOLSS (LOLSS ryegrass, growth reduction of 50%, probit analysis): 54 g ai/ha
GR80 LOLSS (LOLSS ryegrass, growth reduction of 80%, probit analysis): >70 g ai/ha
GR90 LOLSS (LOLSS ryegrass, growth reduction of 90%, probit analysis): >70 g ai/ha
Visual Growth Reduction (%) 21 Days After Application PHAMI (PHAMI lesser canary grass (Phalaris minor), 17.5 g ai/ha): G (0-29)
Visual Growth Reduction (%) 21 Days After Application PHAMI (PHAMI lesser canary grass (Phalaris minor), 35 g ai/ha): F (30-44)
Visual Growth Reduction (%) 21 Days After Application PHAMI (PHAMI lesser canary grass (Phalaris minor), 70 g ai/ha): E (45-59)
GR50 PHAMI (PHAMI lesser canary grass (Phalaris minor), growth reduction of 50%, probit analysis): 65 g ai/ha
GR80 PHAMI (PHAMI lesser canary grass (Phalaris minor), growth reduction of 80%, probit analysis): >70 g ai/ha
GR90 PHAMI (PHAMI lesser canary grass (Phalaris minor), growth reduction of 90%, probit analysis): >70 g ai/ha
GR20 TRZAS (TRZAS wheat, spring (crop), growth reduction of 20%, probit analysis): 1 g ai/ha
pest or weed control at 17.5 g/ha (Triticum aestivum, TRZAS wheat, spring (crop), 17.5 g ai/ha, read-out: Visual Growth Reduction (%) 21 Days After Application TRZAS): 60 to 74%
pest or weed control at 35 g/ha (Triticum aestivum, TRZAS wheat, spring (crop), 35 g ai/ha, read-out: Visual Growth Reduction (%) 21 Days After Application TRZAS): 60 to 74%
pest or weed control at 70 g/ha (Triticum aestivum, TRZAS wheat, spring (crop), 70 g ai/ha, read-out: Visual Growth Reduction (%) 21 Days After Application TRZAS): 75 to 84%
pest or weed control at 17.5 g/ha (ALOMY black-grass (Alopecurus myosuroides), 17.5 g ai/ha, read-out: Visual Growth Reduction (%) 21 Days After Application ALOMY): 85 to 94%
pest or weed control at 35 g/ha (ALOMY black-grass (Alopecurus myosuroides), 35 g ai/ha, read-out: Visual Growth Reduction (%) 21 Days After Application ALOMY): 95 to 100%
pest or weed control at 70 g/ha (ALOMY black-grass (Alopecurus myosuroides), 70 g ai/ha, read-out: Visual Growth Reduction (%) 21 Days After Application ALOMY): 95 to 100%
pest or weed control at 17.5 g/ha (LOLSS ryegrass, 17.5 g ai/ha, read-out: Visual Growth Reduction (%) 21 Days After Application LOLSS): 0 to 29%
pest or weed control at 35 g/ha (LOLSS ryegrass, 35 g ai/ha, read-out: Visual Growth Reduction (%) 21 Days After Application LOLSS): 30 to 44%
pest or weed control at 70 g/ha (LOLSS ryegrass, 70 g ai/ha, read-out: Visual Growth Reduction (%) 21 Days After Application LOLSS): 60 to 74%
